Where no end group is shown, it is not given here.
Legend:
[1] = tested on: C. lusitaniae; experiment: In vitro fungal killing assay; conditions: 6 μM, RPMI 1640, 37° C.; all isolates
[2] = tested on: vaccine strain of B. anthracis; type: cell-based, Bacillus anthracis; conditions: FIG. 26
[3] = tested on: Staphylococcus aureus; experiment: Bacterial lysis (broth dilution) assay, MBC; type: cell-based; conditions: 99.9% killing
Excerpt: The assays for growth inhibition of a microbial target can be used to derive a minimum bactericidal concentration (MBC) value for the peptide, i.e., the concentration of peptide required to kill 99.9% (3-log decrease) of the microbial sample being tested. This value is well known to those in the art as representative of the effectiveness of a particular antimicrobial agent (e.g., an antibiotic) against a particular organism or group of organisms. In assays to detect the MBC of a peptide, growth inhibition of a bacterial population also can be measured with reference to the number of colony forming units (cfu) after exposure to a peptide relative to a control experiment without a peptide.
Bacterial lysis assay. Bacterial lysis assays were conducted in a manner similar to that described previously (Lehrer, R. I., M. E. Selsted, D. Szklarek, and F. J. 1983. Infect. Immun. 42: 10-4, 1983; Miller, M. A., R. F. Garry, J. M. Jaynes, and R. C. Montelaro, AIDS Res Hum Retroviruses 7:511-519, 1991). Bacterial suspensions were cultured in Luria-Bertani Broth to mid-log growth phase and washed by two cycles of centrifugation and suspension in 10 mM phosphate buffer. The Abs600 of the suspension was adjusted with 10 mM phosphate buffer such that, upon dilution, 5-10×10^5 cfu/mL would be treated in the assay. Bacteria were incubated for 1 h with two-fold dilutions of peptides (100 μM to 100 nM) in 96-well plates using 10 mM phosphate buffer, pH 7.2, as a diluent. Ten-fold dilutions of bacteria were performed to 1:1 000; a 100 μl aliquot from each condition was spread on the surface of tryptic soy agar plates (Difco, Detroit, Mich.) which were incubated overnight. Colonies of surviving bacteria (cfu, colony-forming units) were counted and compared to untreated controls to determine the amount of peptide-induced killing under each condition. Log killing is defined as the log of the ratio of cfu present before and after treatment with peptide. The minimal bactericidal concentration, MBC, is the peptide concentration at which 99.9% (three log) killing is achieved (Pearson et al., Antimicrob. Agents Chemother. 18: 699-708, 1980).
Results. Representative gram positive (S. aureus) and gram negative (P. aeruginosa) clinical isolates were used as the index bacteria to survey the peptides described herein.
A limitation of many host-derived antimicrobial peptides is their decreased activity at physiologic (150 mM) NaCl concentration. See Friedrich et al., Antimicrobial Agents and Chemotherapy 43:1542-1548. The peptides WLSA-5 (SEQ ID NO: 3) and LL37 were tested against the two index strains at physiologic NaCl. […] The activity of antimicrobial peptides described herein were compared to an expanded list of clinical bacterial isolates. These are summarized in Table 2 by comparing their MBCs in phosphate buffer alone (low salt) and phosphate buffer containing 150 mM NaCl (physiologic conditions). Inspection of this table would lead one skilled in the art to conclude that the activity of antimicrobial peptides described herein compare favorably to the host derived antimicrobial peptides as it relates to the spectrum and potency of antimicrobial activity.

[4] = tested on: Pseudomonas aeruginosa; experiment: Bacterial lysis (broth dilution) assay, MBC; type: cell-based; parameters: MBC, Psuedomonas aeruginosa, 0 mM NaCl / MBC, Psuedomonas aeruginosa, 150 mM NaCl: unit not given here; conditions: 99.9% killing
[5] = tested on: Indonesia H5N1; type: in vivo, mice; conditions: peptide added to virus just prior to intranasal dose, FIG. 25
[6] = tested on: P. aeruginosa; conditions: intravenous administration; cited from earlier work
[7] = tested on: C. tropicalis
[8] = tested on: Aspergillus fumigatus; experiment: In vitro fungal killing assay; conditions: 2 isolates
[9] = tested on: C. krusei
[10] = tested on: Cryptococcocus neoformans; experiment: In vitro fungal killing assay; conditions: 3 isolates
[11] = tested on: Methicillin Resistant S. aureus; type: cell-based, Staphylococcus aureus; parameters: unit not given here; conditions: 99.9% killing
[12] = tested on: Indonesia H5N1; type: cell-based, influenza virus; conditions: eleven two-fold serial dilutions from 50 μM, FIG. 24
[13] = tested on: C. albicans; experiment: In vitro fungal killing assay; conditions: 6 μM, RPMI 1640, 37° C.; reference strain SC5314 and all clinical isolates
[14] = tested on: P. aeruginosa and primary human skin fibroblasts; conditions: co-culture; cited from earlier work
[15] = 0 mM NaCl (10 mM phosphate buffer)

RRWVRRVRRVWRRVVRVVRRWVRR [WLBU-2, RRWVRRVRRVWRRVVRVVRRWVRR]
time to fully fungicidal effect, C. lusitaniae [1]: ≤ 5 min
inhibition of vegetative form [2]: inhibit the vegetative form of B. anthracis
MBC, Staphylococcus aureus, 0 mM NaCl [3, 15]: 1000 nM
MBC, Staphylococcus aureus, 150 mM NaCl ([3]; 150 mM NaCl (physiologic)): 600 nM
MBC, Psuedomonas aeruginosa, 0 mM NaCl [4, 15]: 200
MBC, Psuedomonas aeruginosa, 150 mM NaCl ([4]; 150 mM NaCl (physiologic)): 100
infectivity of virus in mice [5]: inactivate the infectivity of virus
protection in murine model [6]: protection against a lethal challenge of P. aeruginosa
concentration that completely killed 75% of the isolates, C. tropicalis ([7]; RPMI 1640, 37° C.): 3 µM
concentration that completely killed the remaining isolates, C. tropicalis ([7]; RPMI 1640, 37° C.): 25 µM
minimum fungicidal concentration (MFC, >99.9% kill), C. tropicalis ([7]; remaining isolates): ≤ 6 µM
concentration to which A. fumigatus isolates were resistant [8]: > 100 µM
concentration that completely killed 75% of the isolates, C. krusei ([9]; RPMI 1640, 37° C.): 3 µM
concentration that completely killed the remaining isolates, C. krusei ([9]; RPMI 1640, 37° C.): 25 µM
minimum fungicidal concentration (MFC, >99.9% kill), C. krusei ([9]; remaining isolates): ≤ 6 µM
concentration that completely killed C. neoformans [10]: 3 µM
MBC, Methicillin Resistant S. aureus, 0 mM NaCl [11, 15]: 200
MBC, Methicillin Resistant S. aureus, 150 mM NaCl ([11]; 150 mM NaCl (physiologic)): 100
infectious virus plaque formation [12]: dose-dependent decrease in infectious virus plaque formation
time to fully fungicidal effect, C. albicans [13]: ≤ 5 min
antibacterial selectivity [14]: highest antibacterial selectivity of all peptides evaluated

Reference: patent US8071540B2, “Virus derived antimicrobial peptides” (priority 2007, dated 2011)
